Where two headings read alike, the source gives them in different places. Starred links: 1 amine or outer side, 2 acyl side, 3 side chain; linkers in the order of their positions; H or OH if unused. Positions of bridges follow the written chain, without caps; N, C: chain ends. Non-standard residues stand in square brackets, D forms with d. Residues, ends and D or L forms follow the SMILES beside them. ξ: configuration not given here. Phe(3-CF3) = N[C@@H](Cc1cccc(C(F)(F)F)c1)C(=O)O; X1 = C=CCOc1ccccc1C[C@H](N[*:1])C(=O)[*:2]; NMeW = CN[C@@H](Cc1c[nH]c2ccccc12)C(=O)O; Phe(3-Me) = Cc1cccc(C[C@H](N)C(=O)O)c1; 2Nal = N[C@@H](Cc1ccc2ccccc2c1)C(=O)O; Ahp(2) = CCCCC[C@H](N)C(=O)O; NMeNle = CCCC[C@H](NC)C(=O)O; Tle = CC(C)(C)[C@H](N)C(=O)O; NMeV = CN[C@H](C(=O)O)C(C)C; NHexGly = CCCCCCNCC(=O)O; Nle = CCCC[C@H](N)C(=O)O; Orn = NCCC[C@H](N)C(=O)O; ξD = NC(CC(=O)O)C(=O)O; ξS = NC(CO)C(=O)O
Target: T1, mouse VISTA (mVISTA) (Mus musculus, UniProt Q9D659)
T1 construct: expressed in transfected cells; host or cells: Human embryonic kidney 293T cells
T1 sequence (Q9D659 33-308): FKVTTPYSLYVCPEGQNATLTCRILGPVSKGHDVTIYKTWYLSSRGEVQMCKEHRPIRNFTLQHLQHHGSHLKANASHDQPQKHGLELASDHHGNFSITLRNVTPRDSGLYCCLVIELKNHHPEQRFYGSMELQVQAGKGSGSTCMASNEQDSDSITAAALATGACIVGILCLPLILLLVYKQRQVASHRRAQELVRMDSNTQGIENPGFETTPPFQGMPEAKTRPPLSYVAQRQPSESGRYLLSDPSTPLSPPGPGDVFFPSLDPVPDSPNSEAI
Assay: Cell-Based Binding High-Content Assay For mVISTA (HC CBA mVISTA)
Details: read-out: HC CBA mVISTA IC50
In short: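 This high-content binding assay uses HEK293T cells expressing murine VISTA, measuring displacement of 2 nM biotinylated peptide by fluorescent streptavidin imaging. IC50 values come from four-parameter logistic fitting.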

[1] = cell-based binding high-content assay, mVISTA, the 15th table

IC50 [1] [nM] | IC50 [nM] | Compound
9.4 |  | CCCCCCN1CC(=O)N[C@@H](Cc2ccc(O)cc2)C(=O)N[C@@H](CCCC)C(=O)N[C@@H](CC(N)=O)C(=O)N[C@@H](CCCNC(=N)N)C(=O)N(C)[C@@H](C(C)C)C(=O)N[C@@H](CCCCC)C(=O)N2CCC[C@H]2C(=O)N[C@@H](C(C)C)C(=O)N[C@@H](CC(=O)O)C(=O)N[C@H](C(=O)NCC(=O)O)CSCC(=O)N[C@@H](Cc2ccc3ccccc3c2)C(=O)N[C@@H](Cc2c[nH]c3ccccc23)C(=O)N[C@@H](CC(=O)O)C1=O [compound 1260] ({CH2CO}-[2Nal]WD[NHexGly]Y[Nle]NR[NMeV][Ahp(2)]PVDCG-OH; thioether N-14)
11.7 |  | CCCCCCN1CC(=O)N[C@@H](Cc2ccc(O)cc2)C(=O)N[C@@H](CCCC)C(=O)N[C@@H](CC(N)=O)C(=O)N[C@@H](CCCNC(=N)N)C(=O)N(C)[C@@H](Cc2c[nH]c3ccccc23)C(=O)N[C@@H](CCCCC)C(=O)N2CCC[C@H]2C(=O)N[C@@H](C(C)C)C(=O)N[C@@H](CC(=O)O)C(=O)N[C@H](C(=O)NCC(=O)O)CSCC(=O)N[C@@H](Cc2ccc3ccccc3c2)C(=O)N[C@@H](Cc2c[nH]c3ccccc23)C(=O)N[C@@H](CC(=O)O)C1=O [compound 1261] ({CH2CO}-[2Nal]WD[NHexGly]Y[Nle]NR[NMeW][Ahp(2)]PVDCG-OH; thioether N-14)
20 |  | CCCCCCN1CC(=O)N[C@@H](Cc2ccc(O)cc2)C(=O)N[C@@H](CC(C)C)C(=O)NCC(=O)N[C@@H](CCCNC(=N)N)C(=O)N[C@@H](Cc2ccc(O)cc2)C(=O)N[C@@H](CCCCC)C(=O)N2CCC[C@H]2C(=O)N[C@@H](C(C)C)C(=O)N[C@@H](CC(=O)O)C(=O)N[C@H](C(=O)NCC(=O)O)CSCC(=O)N[C@@H](Cc2ccc3ccccc3c2)C(=O)N[C@@H](Cc2c[nH]c3ccccc23)C(=O)N[C@@H](CC(=O)O)C1=O [compound 1263] ({CH2CO}-[2Nal]WD[NHexGly]YLGRY[Ahp(2)]PVDCG-OH; thioether N-14)
28.4 |  | CCCCCCN1CC(=O)N[C@@H](Cc2ccc(O)cc2)C(=O)N[C@@H](CC(C)C)C(=O)NCC(=O)N[C@@H](CCCNC(=N)N)C(=O)N[C@@H](Cc2ccc(O)cc2)C(=O)N[C@@H](CCCCC)C(=O)N2CCC[C@H]2C(=O)N[C@@H](C(C)C)C(=O)N[C@@H](CC(=O)O)C(=O)N[C@H](C(=O)NCC(N)=O)CSCC(=O)N[C@@H](Cc2ccc3ccccc3c2)C(=O)N[C@@H](Cc2c[nH]c3ccccc23)C(=O)N[C@@H](CC(=O)O)C1=O [compound 1264] ({CH2CO}-[2Nal]WD[NHexGly]YLGRY[Ahp(2)]PVDCG-NH2; thioether N-14)
 | 48.2 | CCCCCCN1CC(=O)N[C@@H](Cc2ccc(O)cc2)C(=O)N[C@@H](C(C)C)C(=O)NCC(=O)N[C@@H](CCCNC(=N)N)C(=O)N[C@@H](CC(C)C)C(=O)N[C@@H](CCCCC)C(=O)N2CCC[C@H]2C(=O)N[C@@H](C(C)C)C(=O)N[C@@H](CC(=O)O)C(=O)N[C@H](C(=O)NCC(N)=O)CSCC(=O)N[C@@H](Cc2ccccc2)C(=O)N[C@@H](Cc2ccc3ccccc3c2)C(=O)N[C@@H](CC(=O)O)C1=O [compound 1324] ({CH2CO}-F[2Nal]D[NHexGly]YVGRL[Ahp(2)]PVDCG-NH2; thioether N-14)
 | 24.3 | CCCCCCN1CC(=O)N[C@@H](Cc2ccc(O)cc2)C(=O)N[C@@H](CCCCC)C(=O)NCC(=O)N[C@@H](CCCNC(=N)N)C(=O)N[C@@H](CC(C)C)C(=O)N[C@@H](CCCCC)C(=O)N2CCC[C@H]2C(=O)N[C@@H](C(C)C)C(=O)N[C@@H](CO)C(=O)N[C@H](C(=O)NCC(N)=O)CSCC(=O)N[C@@H](Cc2ccccc2)C(=O)N[C@@H](Cc2ccccc2)C(=O)N[C@@H](CC(=O)O)C1=O [compound 1325] ({CH2CO}-FFD[NHexGly]Y[Ahp(2)]GRL[Ahp(2)]PVSCG-NH2; thioether N-14)
 | 17.5 | CCCCCCN1CC(=O)N[C@@H](Cc2ccc(O)cc2)C(=O)N[C@@H](CCCC)C(=O)N[C@@H](CC(=O)O)C(=O)N[C@@H](CCCN)C(=O)N[C@@H](CC(C)C)C(=O)N[C@@H](CCCCC)C(=O)N2CCC[C@H]2C(=O)N[C@@H](C(C)C)C(=O)N[C@@H](CC(=O)O)C(=O)N[C@H](C(=O)NC(CC(=O)O)C(N)=O)CSCC(=O)N[C@@H](Cc2ccccc2)C(=O)N[C@@H](Cc2cccc(C)c2)C(=O)N[C@@H](CC(=O)O)C1=O (stereo partly drawn) [compound 1326] ({CH2CO}-F[Phe(3-Me)]D[NHexGly]Y[Nle]D[Orn]L[Ahp(2)]PVDC[ξD]-NH2; thioether N-14)
 | 13.9 | CCCCCCN1CC(=O)N[C@@H](Cc2ccc(O)cc2)C(=O)N[C@@H](CCCC)C(=O)N[C@@H](CC(=O)O)C(=O)N[C@@H](CCCNC(=N)N)C(=O)N[C@@H](CC(C)C)C(=O)N[C@@H](CCCCC)C(=O)N2CCC[C@H]2C(=O)N[C@@H](C(C)C)C(=O)N[C@@H](CC(=O)O)C(=O)N[C@H](C(=O)NC(CC(=O)O)C(N)=O)CSCC(=O)N[C@@H](Cc2ccccc2)C(=O)N[C@@H](Cc2cccc(C)c2)C(=O)N[C@@H](CC(=O)O)C1=O (stereo partly drawn) [compound 1327] ({CH2CO}-F[Phe(3-Me)]D[NHexGly]Y[Nle]DRL[Ahp(2)]PVDC[ξD]-NH2; thioether N-14)
 | 2 | CCCCCCN1CC(=O)N[C@@H](Cc2ccc(O)cc2)C(=O)N[C@@H](CC(C)C)C(=O)N[C@@H](CC(N)=O)C(=O)N[C@@H](CCCNC(=N)N)C(=O)N[C@@H](CC(C)C)C(=O)N[C@@H](CCCCC)C(=O)N2CCC[C@H]2C(=O)N[C@@H](C(C)C)C(=O)N[C@@H](C(C)C)C(=O)N[C@H](C(=O)NCC(=O)O)CSCC(=O)N[C@@H](Cc2ccccc2)C(=O)N[C@@H](Cc2cccc(C)c2)C(=O)N[C@@H](CC(=O)O)C1=O [compound 1328] ({CH2CO}-F[Phe(3-Me)]D[NHexGly]YLNRL[Ahp(2)]PVVCG-OH; thioether N-14)
 | 4.5 | CCCCCCN1CC(=O)N[C@@H](Cc2ccc(O)cc2)C(=O)N[C@@H](CCCC)C(=O)N[C@@H](CC(N)=O)C(=O)N[C@@H](CCCNC(=N)N)C(=O)N[C@@H](CC(C)C)C(=O)N[C@@H](CCCCC)C(=O)N2CCC[C@H]2C(=O)N[C@@H](C(C)C)C(=O)N[C@@H](CC(=O)O)C(=O)N[C@H](C(=O)NCC(=O)O)CSCC(=O)N[C@@H](Cc2ccccc2)C(=O)N[C@@H](Cc2cccc(C)c2)C(=O)N[C@@H](CC(=O)O)C1=O [compound 1329] ({CH2CO}-F[Phe(3-Me)]D[NHexGly]Y[Nle]NRL[Ahp(2)]PVDCG-OH; thioether N-14)
 | 16.8 | CCCCCCN1CC(=O)N[C@@H](Cc2ccc(O)cc2)C(=O)N[C@@H](CCCC)C(=O)N[C@@H](CC(=O)O)C(=O)N[C@@H](CCCNC(=N)N)C(=O)N[C@@H](CC(C)C)C(=O)N[C@@H](CCCCC)C(=O)N2CCC[C@H]2C(=O)N[C@@H](C(C)C)C(=O)N[C@@H](CC(=O)O)C(=O)N[C@H](C(=O)NC(CO)C(N)=O)CSCC(=O)N[C@@H](Cc2ccccc2)C(=O)N[C@@H](Cc2cccc(C)c2)C(=O)N[C@@H](CC(=O)O)C1=O (stereo partly drawn) [compound 1330] ({CH2CO}-F[Phe(3-Me)]D[NHexGly]Y[Nle]DRL[Ahp(2)]PVDC[ξS]-NH2; thioether N-14)
 | 14.3 | CCCCCCN1CC(=O)N[C@@H](Cc2ccc(O)cc2)C(=O)N[C@@H](CCCC)C(=O)N[C@@H](CC(=O)O)C(=O)N[C@@H](CCCN)C(=O)N[C@@H](CC(C)C)C(=O)N[C@@H](CCCCC)C(=O)N2CCC[C@H]2C(=O)N[C@@H](C(C)C)C(=O)N[C@@H](CC(=O)O)C(=O)N[C@H](C(=O)NC(CO)C(N)=O)CSCC(=O)N[C@@H](Cc2ccccc2)C(=O)N[C@@H](Cc2cccc(C)c2)C(=O)N[C@@H](CC(=O)O)C1=O (stereo partly drawn) [compound 1331] ({CH2CO}-F[Phe(3-Me)]D[NHexGly]Y[Nle]D[Orn]L[Ahp(2)]PVDC[ξS]-NH2; thioether N-14)
 | 12.1 | CCCCCCN1CC(=O)N[C@@H](Cc2ccc(O)cc2)C(=O)N[C@@H](CCCC)C(=O)N[C@@H](CC(N)=O)C(=O)N[C@@H](CCCNC(=N)N)C(=O)N[C@@H](CC(C)C)C(=O)N[C@@H](CCCCC)C(=O)N2CCC[C@H]2C(=O)N[C@@H](C(C)C)C(=O)N[C@@H](CC(=O)O)C(=O)N[C@H](C(=O)NCC(=O)O)CSCC(=O)N[C@@H](Cc2ccccc2)C(=O)N[C@@H](Cc2cccc(C(F)(F)F)c2)C(=O)N[C@@H](CC(=O)O)C1=O [compound 1332] ({CH2CO}-F[Phe(3-CF3)]D[NHexGly]Y[Nle]NRL[Ahp(2)]PVDCG-OH; thioether N-14)
 | 27.6 | CCCCCCN1CC(=O)N[C@@H](Cc2ccc(O)cc2)C(=O)N[C@@H](CC(C)C)C(=O)N[C@@H](CC(N)=O)C(=O)N[C@@H](CCCNC(=N)N)C(=O)N[C@@H](CC(C)C)C(=O)N[C@@H](CCCCC)C(=O)N2CCC[C@H]2C(=O)N[C@@H](C(C)C)C(=O)N[C@@H](C(C)C)C(=O)N[C@H](C(=O)NCC(=O)O)CSCC(=O)N[C@@H](Cc2ccccc2)C(=O)N[C@@H](Cc2cccc(C(F)(F)F)c2)C(=O)N[C@@H](CC(=O)O)C1=O [compound 1333] ({CH2CO}-F[Phe(3-CF3)]D[NHexGly]YLNRL[Ahp(2)]PVVCG-OH; thioether N-14)

Compound | IC50 [1] [nM] | IC50 [nM]
C=CCOc1ccccc1C[C@@H]1NC(=O)[C@H](Cc2ccccc2)NC(=O)CSC[C@@H](C(=O)NCC(N)=O)NC(=O)[C@H](CO)NC(=O)[C@H](C(C)(C)C)NC(=O)[C@@H]2CCCN2C(=O)[C@H](CCCCC)NC(=O)[C@H](CCCC)N(C)C(=O)[C@H](CCCNC(=N)N)NC(=O)[C@H](CC(N)=O)NC(=O)[C@H](CC(C)C)NC(=O)[C@H](Cc2ccc(O)cc2)NC(=O)CN(CCCCCC)C(=O)[C@H](CC(=O)O)NC1=O [compound 1338] ({CH2CO}-F[X1]D[NHexGly]YLNR[NMeNle][Ahp(2)]P[Tle]SCG-NH2; thioether N-14) |  | 34.6

From US20240218022A1, “ANTI-VISTA MACROCYCLIC PEPTIDES AND COMPOSITIONS” (BRISTOL-MYERS SQUIBB COMPANY, priority 2022, published 2024)
